These results are taken from US9216173B2, “2-Pyridyl carboxamide-containing spleen tyrosine kinase (SYK) inhibitors” (Merck Sharp & Dohme Corp., priority 2011, dated 2015).

In the first assay the target is T1, recombinant human GST-SYK (Homo sapiens, UniProt P43405).
T1 construct: purchased Carna Biosciences 08-176
In words: Homogeneous Time-Resolved Fluorescence (HTRF) assay for the recombinant human Syk enzyme. The assay is classed as biochemical. Particulars: GST-hSYK 5 pM, ATP 25 μM, 10-dose titration 10 μM to 0.508 nM; read-out: IC50. How it is done: Homogeneous Time-Resolved Fluorescence (HTRF) Assay for the Recombinant Human Syk Enzyme
A recombinant GST-hSYK fusion protein was used to measure potency of compounds to inhibit human Syk activity. […] Final volume of the reaction was 10 μL. Phosphorylation of the peptide was allowed to proceed for 45 minutes at room temperature. To quench the reaction and detect the phosphorylated product, 2 nM of a Europium-anti-phosphotyrosine antibody (Perkin Elmer #AD0161) and 70 nM SA-APC (Perkin-Elmer #CR130-100) were added together in 15 mM Tris pH 7.5, 40 mM EDTA, 0.01% tween 20. Final volume of the quenching solution was 10 μL. The resulting HTRF signal was measured after 30 minutes on an EnVision (Perkin-Elmer) reader using a time-resolved fluorescence protocol.
On the technique in general: Time-resolved FRET reads energy transfer from a long-lived donor to a nearby acceptor.
On to `Cc1cc(C)nc(Nc2cc(N[C@@H](CC(C)C)C(N)=O)cnc2C(N)=O)c1` [Example 1.46, N^2-{6-carbamoyl-5-[(4,6-dimethylpyridin-2-yl)amino]pyridin-3-yl}- -leucinamide], for which the IC50 came to 7.8 nM.

Staying with this assay, now noted: GST-hSYK 5 pM, ATP 25 μM, 10-dose titration 10 μM to 0.508 nM; read-out: rhSYK Activity (IC50 rating).
For the molecule `NC(=O)c1ncc(N[C@@H]2CCCC[C@@H]2N)cc1Nc1ccn(-c2ccc(F)cc2)n1` [Example 1.65, 5-{[(1R,2S)-2-aminocyclohexyl]amino}-3-{[1-(4-fluorophenyl)-1H-pyrazol-3-yl]amino}pyridine-2-carboxamide], the IC50 is under 10 nM.
As for `Cc1cc(Cl)nc(Nc2cc(N[C@@H]3CCCC[C@@H]3N)cnc2C(N)=O)c1` [Example 1.38, 5-{[(1R,2S)-2-aminocyclohexyl]amino}-3-[(6-chloro-4-methylpyridin-2-yl)amino]pyridine-2-carboxamide], the IC50 is under 10 nM.
Still for that read-out and setting: the result for `Cc1nc(Nc2cc(N[C@@H]3CCCC[C@@H]3N)cnc2C(N)=O)ccc1-c1ccc(CO)cc1` [Example 3.7, 5-{[(1R,2S)-2-aminocyclohexyl]amino}-3-({5-[4-(hydroxymethyl)phenyl]-6-methylpyridin-2-yl}amino)pyridine-2-carboxamide] reads under 10 nM.
In the case of `NC(=O)c1ncc(N[C@@H]2CCCC[C@@H]2N)cc1Nc1cccc(-c2cn(Cc3ccccc3)nn2)n1` [Example 1.101, 5-{[(1R,2S)-2-aminocyclohexyl]amino}-3-{[6-(1-benzyl-1H-1,2,3-triazol-4-yl)pyridin-2-yl]amino}pyridine-2-carboxamide], the concentration for half-maximal inhibition (IC50) is under 10 nM.
With `Cc1cc(C(=O)O)cc(Nc2cc(N[C@@H]3CCCC[C@@H]3N)cnc2C(N)=O)n1` [Example 12, 2-[(5-{[(1R,2S)-2-aminocyclohexyl]amino}-2-carbamoylpyridin-3-yl)amino]-6-methylpyridine-4-carboxylic acid], the IC50 lay in the range of 10 to 100 nM.
With `COc1cc(Nc2cc(N[C@@H]3CCCC[C@@H]3N)cnc2C(N)=O)nc(OC)n1` [Example 1.124, 5-{[(1R,2S)-2-aminocyclohexyl]amino}-3-[(2,6-dimethoxypyrimidin-4-yl)amino]pyridine-2-carboxamide], the IC50 is under 10 nM.
Consider `Cc1cc(C)nc(Nc2cc(NC[C@H](C)N)cnc2C(N)=O)c1` [Example 1.3, 5-{[(2S)-2-aminopropyl]amino}-3-[(4,6-dimethylpyridin-2-yl)amino]pyridine-2-carboxamide], for which the 50% inhibitory concentration (IC50) is under 10 nM.
Regarding `CCc1cccc(Nc2cc(N[C@H]3[C@@H](N)CCCC3(F)F)cnc2C(N)=O)n1` [Example 1.88, 5-{[(1S,6S)-6-amino-2,2-difluorocyclohexyl]amino}-3-[(6-ethylpyridin-2-yl)amino]pyridine-2-carboxamide], the IC50 was under 10 nM.
In the case of `Cc1cc(C)nc(Nc2cc(NCC(N)C(F)F)cnc2C(N)=O)c1` (centres unmarked) [Example 2.4, 5-[(2-amino-3,3-difluoropropyl)amino]-3-[(4,6-dimethylpyridin-2-yl)amino]pyridine-2-carboxamide], the IC50 lay within 10 to 100 nM.
The same measure, in the same setting: the result for `Cc1cc(C)nc(Nc2cc(NC(C)(C)CN)cnc2C(N)=O)c1` [Example 1.19, 5-[(2-amino-1,1-dimethylethyl)amino]-3-[(4,6-dimethylpyridin-2-yl)amino]pyridine-2-carboxamide] reads 10 to 100 nM; that for `NC(=O)c1ncc(N[C@@H]2CCCC[C@@H]2N)cc1Nc1cccc(C2CC2)n1` [Example 1.53, 5-{[(1R,2S)-2-aminocyclohexyl]amino}-3-[(6-cyclopropylpyridin-2-yl)amino]pyridine-2-carboxamide], under 10 nM.
For `Cc1cc(C)nc(Nc2cc(NC3CCNCC3)cnc2C(N)=O)c1` [Example 2.10, 3-[(4,6-dimethylpyridin-2-yl)amino]-5-(piperidin-4-ylamino)pyridine-2-carboxamide], the IC50 lay within 100 to 1000 nM.
The same measure, in the same setting: the result for `Cc1cc(C)nc(Nc2cc(NCC3(N)CCOC3)cnc2C(N)=O)c1` (centres unmarked) [Example 1.35, 5-{[(3-aminotetrahydrofuran-3-yl)methyl]amino}-3-[(4,6-dimethylpyridin-2-yl)amino]pyridine-2-carboxamide] reads 10 to 100 nM.

In general, IC50 refers to the concentration that gives 50% inhibition.
